From PubChem BioAssay AID2060602 (Molecular Pharmacology Branch, DTP, NCI, 2025)
Each block holds one compound with its values, some of them ahead of it.

Test system: 648629-189-R-J1-PDC complex spheroids viability
Test: Anticancer human tumor 648629-189-R-J1-PDC patient-derived bladder carcinoma cell line growth inhibition [CLK]
Details: for IC50: curve of first compound; for viability, T/C: stronger effect = lower value
How it was run: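 Patient-derived tumor cells grown as complex spheroids with HUVEC endothelial cells and mesenchymal stem cells, treated with drug combinations. Concentrations descend in half-log steps from near clinical Cmax, or from 10 microM if Cmax unknown.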

[1] = second compound 0.0316 µM, first compound 0.0316 µM
[2] = second compound 0.0316 µM, first compound 0.1 µM
[3] = second compound 0.0316 µM, first compound 0.316 µM
[4] = second compound 0.0316 µM, first compound 1 µM
[5] = second compound 0.0316 µM, first compound 3.16 µM
[6] = second compound 0.0316 µM, first compound 10 µM
[7] = second compound 0.1 µM, first compound 0.0316 µM
[8] = second compound 0.1 µM, first compound 0.1 µM
[9] = second compound 0.1 µM, first compound 0.316 µM
[10] = second compound 0.1 µM, first compound 1 µM
[11] = second compound 0.1 µM, first compound 3.16 µM
[12] = second compound 0.1 µM, first compound 10 µM
[13] = second compound 0.316 µM, first compound 0.0316 µM
[14] = second compound 0.316 µM, first compound 0.1 µM
[15] = second compound 0.316 µM, first compound 0.316 µM
[16] = second compound 0.316 µM, first compound 1 µM
[17] = second compound 0.316 µM, first compound 3.16 µM
[18] = second compound 0.316 µM, first compound 10 µM
[19] = second compound 1 µM, first compound 0.0316 µM
[20] = second compound 1 µM, first compound 0.1 µM
[21] = second compound 1 µM, first compound 0.316 µM
[22] = second compound 1 µM, first compound 1 µM
[23] = second compound 1 µM, first compound 3.16 µM
[24] = second compound 1 µM, first compound 10 µM
[25] = second compound 3.16 µM, first compound 0.0316 µM
[26] = second compound 3.16 µM, first compound 0.1 µM
[27] = second compound 3.16 µM, first compound 0.316 µM
[28] = second compound 3.16 µM, first compound 1 µM
[29] = second compound 3.16 µM, first compound 3.16 µM
[30] = second compound 3.16 µM, first compound 10 µM
[31] = second compound 10 µM, first compound 0.0316 µM
[32] = second compound 10 µM, first compound 0.1 µM
[33] = second compound 10 µM, first compound 0.316 µM
[34] = second compound 10 µM, first compound 1 µM
[35] = second compound 10 µM, first compound 3.16 µM
[36] = second compound 10 µM, first compound 10 µM
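Wherever viability, T/C is given: drug exposure lasted seven days before viability readout; 100% = DMSO vehicle control wells.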

IC50 (second compound 0.0316 µM): 0.00304 µM | IC50 (second compound 0.1 µM): 0.00221 µM | IC50 (second compound 0.316 µM): < 0.000949 µM | IC50 (second compound 1 µM): < 0.000949 µM | IC50 (second compound 3.16 µM): < 0.000949 µM | IC50 (second compound 10 µM): < 0.000949 µM
SMILES: CC(C)CC(NC(=O)C(Cc1ccccc1)NC(=O)c1cnccn1)B(O)O (stereo unspecified) + CNC(=O)c1ccc(Nc2nc(OC3CCCC3)c3c(-c4ccc5nc(C)oc5c4)c[nH]c3n2)c(OC)c1
viability, T/C (second compound 0.0316 µM, first compound 0.000949 µM): 105% | viability, T/C (second compound 0.0316 µM, first compound 0.003 µM): 50.5% | viability, T/C (second compound 0.0316 µM, first compound 0.00949 µM): 1.99% | viability, T/C (second compound 0.0316 µM, first compound 0.03 µM): 0.26% | viability, T/C (second compound 0.0316 µM, first compound 0.0949 µM): 0.18% | viability, T/C (second compound 0.0316 µM, first compound 0.3 µM): 1.59% | viability, T/C (second compound 0.1 µM, first compound 0.000949 µM): 91.4% | viability, T/C (second compound 0.1 µM, first compound 0.003 µM): 35% | viability, T/C (second compound 0.1 µM, first compound 0.00949 µM): 0.64% | viability, T/C (second compound 0.1 µM, first compound 0.03 µM): 0.21% | viability, T/C (second compound 0.1 µM, first compound 0.0949 µM): 0.15% | viability, T/C (second compound 0.1 µM, first compound 0.3 µM): 1.03% | viability, T/C (second compound 0.316 µM, first compound 0.000949 µM): 34.9% | viability, T/C (second compound 0.316 µM, first compound 0.003 µM): 35% | viability, T/C (second compound 0.316 µM, first compound 0.00949 µM): 0.45% | viability, T/C (second compound 0.316 µM, first compound 0.03 µM): 0.28% | viability, T/C (second compound 0.316 µM, first compound 0.0949 µM): 0.76% | viability, T/C (second compound 0.316 µM, first compound 0.3 µM): 0.16% | viability, T/C (second compound 1 µM, first compound 0.000949 µM): 23.6% | viability, T/C (second compound 1 µM, first compound 0.003 µM): 24.1% | viability, T/C (second compound 1 µM, first compound 0.00949 µM): 2.18% | viability, T/C (second compound 1 µM, first compound 0.03 µM): 0.36% | viability, T/C (second compound 1 µM, first compound 0.0949 µM): 0.34% | viability, T/C (second compound 1 µM, first compound 0.3 µM): 1.9% | viability, T/C (second compound 3.16 µM, first compound 0.000949 µM): 28.1% | viability, T/C (second compound 3.16 µM, first compound 0.003 µM): 9.77% | viability, T/C (second compound 3.16 µM, first compound 0.00949 µM): 3.72% | viability, T/C (second compound 3.16 µM, first compound 0.03 µM): 0.62% | viability, T/C (second compound 3.16 µM, first compound 0.0949 µM): 1.49% | viability, T/C (second compound 3.16 µM, first compound 0.3 µM): 0.23% | viability, T/C (second compound 10 µM, first compound 0.000949 µM): 24.2% | viability, T/C (second compound 10 µM, first compound 0.003 µM): 14.2% | viability, T/C (second compound 10 µM, first compound 0.00949 µM): 1.91% | viability, T/C (second compound 10 µM, first compound 0.03 µM): 0.53% | viability, T/C (second compound 10 µM, first compound 0.0949 µM): 1.61% | viability, T/C (second compound 10 µM, first compound 0.3 µM): 1.49%

IC50 (second compound 0.0316 µM): 2.41 µM | IC50 (second compound 0.1 µM): 3.43 µM | IC50 (second compound 0.316 µM): < 0.0316 µM | IC50 (second compound 1 µM): < 0.0316 µM | IC50 (second compound 3.16 µM): < 0.0316 µM | IC50 (second compound 10 µM): < 0.0316 µM
SMILES: CC1COCCN1c1cc(C2(S(C)(=N)=O)CC2)nc(-c2ccnc3[nH]ccc23)n1 (stereo unspecified) + CNC(=O)c1ccc(Nc2nc(OC3CCCC3)c3c(-c4ccc5nc(C)oc5c4)c[nH]c3n2)c(OC)c1
viability, T/C [1]: 112% | viability, T/C [2]: 115% | viability, T/C [3]: 98.5% | viability, T/C [4]: 83.4% | viability, T/C [5]: 38.6% | viability, T/C [6]: 19.3% | viability, T/C [7]: 90.2% | viability, T/C [8]: 96.3% | viability, T/C [9]: 92.1% | viability, T/C [10]: 74.2% | viability, T/C [11]: 53.5% | viability, T/C [12]: 21.3% | viability, T/C [13]: 28.9% | viability, T/C [14]: 34.6% | viability, T/C [15]: 34.6% | viability, T/C [16]: 32.4% | viability, T/C [17]: 22.4% | viability, T/C [18]: 15.3% | viability, T/C [19]: 20.5% | viability, T/C [20]: 25.6% | viability, T/C [21]: 19.7% | viability, T/C [22]: 19.2% | viability, T/C [23]: 18.9% | viability, T/C [24]: 16% | viability, T/C [25]: 16.4% | viability, T/C [26]: 21.8% | viability, T/C [27]: 22.3% | viability, T/C [28]: 23.1% | viability, T/C [29]: 21.7% | viability, T/C [30]: 13.9% | viability, T/C [31]: 18.6% | viability, T/C [32]: 19.7% | viability, T/C [33]: 20.8% | viability, T/C [34]: 20.1% | viability, T/C [35]: 21.9% | viability, T/C [36]: 12.4%

IC50 (second compound 0.0316 µM): > 10 µM | IC50 (second compound 0.1 µM): > 10 µM | IC50 (second compound 0.316 µM): < 0.0316 µM | IC50 (second compound 1 µM): < 0.0316 µM | IC50 (second compound 3.16 µM): < 0.0316 µM | IC50 (second compound 10 µM): < 0.0316 µM
SMILES: O=C(c1cc(Cc2n[nH]c(=O)c3ccccc23)ccc1F)N1CCN(C(=O)C2CC2)CC1 + CNC(=O)c1ccc(Nc2nc(OC3CCCC3)c3c(-c4ccc5nc(C)oc5c4)c[nH]c3n2)c(OC)c1
viability, T/C [1]: 92.3% | viability, T/C [2]: 101% | viability, T/C [3]: 103% | viability, T/C [4]: 106% | viability, T/C [5]: 83.3% | viability, T/C [6]: 74.9% | viability, T/C [7]: 93.6% | viability, T/C [8]: 95.1% | viability, T/C [9]: 89.3% | viability, T/C [10]: 86.9% | viability, T/C [11]: 82.9% | viability, T/C [12]: 70.8% | viability, T/C [13]: 26.9% | viability, T/C [14]: 29% | viability, T/C [15]: 27.1% | viability, T/C [16]: 29.1% | viability, T/C [17]: 28.7% | viability, T/C [18]: 27.4% | viability, T/C [19]: 18.8% | viability, T/C [20]: 17.3% | viability, T/C [21]: 20.1% | viability, T/C [22]: 17.2% | viability, T/C [23]: 17.6% | viability, T/C [24]: 18.6% | viability, T/C [25]: 15.9% | viability, T/C [26]: 18.9% | viability, T/C [27]: 19% | viability, T/C [28]: 20.3% | viability, T/C [29]: 19% | viability, T/C [30]: 19.2% | viability, T/C [31]: 23.8% | viability, T/C [32]: 21.7% | viability, T/C [33]: 22% | viability, T/C [34]: 19% | viability, T/C [35]: 20.2% | viability, T/C [36]: 21.1%
